Reference: ChEMBL document CHEMBL5120927, “LEGO-Lipophosphonoxins: A Novel Approach in Designing Membrane Targeting Antimicrobials” (J Med Chem, 2022)
Calls of active or inactive are those of the source. No cut-off for these calls is given here.

Key:
[1] = Toxicity in rabbit assessed as maximum tolerated dose administered orally; design: species or system Oryctolagus cuniculus; details: in vivo, route po
Staphylococcus aureus [2] = experiment: Antibacterial activity against wild type Staphylococcus aureus 4679/B assessed as reduction in microbial growth incubated for 24 hrs by microdilution assay; assay type: functional
[3] = Gradient chromatographic hydrophobicity index of the compound at pH 3.7 by HPLC analysis; assay type: ADME
[4] = Toxicity in human cornea epidermis model assessed as tissue viability pretreated for 1 hr and measured after 42 hrs by MTT assay relative to control; assay type: tissue-based; details: read-out: Activity
Staphylococcus aureus [5] = experiment: Antibacterial activity against wild type Staphylococcus aureus 4566/A assessed as reduction in microbial growth incubated for 24 hrs by microdilution assay; assay type: functional
[6] = Toxicity in human cornea epidermis model assessed as eye irritation incubated for 42 hrs; assay type: tissue-based
Staphylococcus aureus [7] = experiment: Antibacterial activity against wild type Staphylococcus aureus 4515/A assessed as reduction in microbial growth incubated for 24 hrs by microdilution assay; assay type: functional
Staphylococcus aureus [8] = experiment: microbe, parasite or virus in culture; details: 4880/C, 24 h
Description: Antibacterial activity against wild type Staphylococcus aureus 4880/C assessed as reduction in microbial growth incubated for 24 hrs by microdilution assay

[9] = Toxicity in rabbit assessed as eye irritation at 100 mg/L measured at 1 to 168 hrs; design: species or system Oryctolagus cuniculus; details: in vivo, topical_or_ocular, time 1-168 hrs
Staphylococcus aureus [10] = experiment: Antibacterial activity against wild type Staphylococcus aureus 4504/A assessed as reduction in microbial growth incubated for 24 hrs by microdilution assay; assay type: functional
Pseudomonas aeruginosa [11] = experiment: Antibacterial activity against multidrug-resistant Pseudomonas aeruginosa assessed as reduction in microbial growth incubated for 24 hrs by microdilution assay; assay type: functional
Staphylococcus aureus [12] = experiment: Antibacterial activity against […] Staphylococcus aureus 4463/A assessed as reduction in microbial growth incubated for 24 hrs by microdilution assay; assay type: functional
[13] = system: Staphylococcus epidermidis; experiment: Antibacterial activity against Staphylococcus epidermidis CCM 7221 assessed as inhibition of bacterial growth incubated for 24 hrs by microdilution assay; assay type: functional
Staphylococcus aureus [14] = experiment: Antibacterial activity against wild type Staphylococcus aureus 4904/C assessed as reduction in microbial growth incubated for 24 hrs by microdilution assay; assay type: functional
Staphylococcus aureus [15] = experiment: Antibacterial activity against […] Staphylococcus aureus 4461/A assessed as reduction in microbial growth incubated for 24 hrs by microdilution assay; assay type: functional
Staphylococcus aureus [16] = experiment: Antibacterial activity against wild type Staphylococcus aureus 4502/A assessed as reduction in microbial growth incubated for 24 hrs by microdilution assay; assay type: functional
Staphylococcus aureus [17] = experiment: microbe, parasite or virus in culture; details: 5017/C, 24 h
Description: Antibacterial activity against wild type Staphylococcus aureus 5017/C assessed as reduction in microbial growth incubated for 24 hrs by microdilution assay

Escherichia coli [18] = experiment: Antibacterial activity against Escherichia coli ATCC 25922 = CCM 3954 assessed as inhibition of bacterial growth incubated for 24 hrs by microdilution assay; assay type: functional
Staphylococcus aureus [19] = experiment: Antibacterial activity against wild type Staphylococcus aureus 4557/A assessed as reduction in microbial growth incubated for 24 hrs by microdilution assay; assay type: functional
Staphylococcus aureus [20] = experiment: Antibacterial activity against wild type Staphylococcus aureus 4883/C assessed as reduction in microbial growth incubated for 24 hrs by microdilution assay; assay type: functional
Cell membrane [21] = experiment: Induction of cell envelope damage in Staphylococcus aureus assessed as tubular structure at 8 mg/L measured after 8 hrs by scanning electron microscope analysis
Staphylococcus aureus [22] = experiment: Antibacterial activity against wild type Staphylococcus aureus 77/CF assessed as reduction in microbial growth incubated for 24 hrs by microdilution assay; assay type: functional
Staphylococcus aureus [23] = experiment: Antibacterial activity against […] Staphylococcus aureus 4460/A assessed as reduction in microbial growth incubated for 24 hrs by microdilution assay; assay type: functional
Escherichia coli [24] = experiment: Antibacterial activity against Escherichia coli ATCC 25922 = CCM 3954 assessed as inhibition of bacterial growth incubated for 24 hrs in presence of BSA by microdilution assay; assay type: functional
Pseudomonas aeruginosa [25] = experiment: Antibacterial activity against Pseudomonas aeruginosa ATCC 27853 = CCM 3955 assessed as inhibition of bacterial growth incubated for 24 hrs by microdilution assay; assay type: functional
Staphylococcus aureus [26] = experiment: Antibacterial activity against wild type Staphylococcus aureus 4482/A assessed as reduction in microbial growth incubated for 24 hrs by microdilution assay; assay type: functional
[27] = Hemolytic activity in human RBC assessed as haemoglobin release measured after 3 hr; assay type: toxicity, cell-based, Erythrocyte; details: red blood cells (erythrocytes)
Staphylococcus aureus [28] = experiment: Antibacterial activity against wild type Staphylococcus aureus 4717/B assessed as reduction in microbial growth incubated for 24 hrs by microdilution assay; assay type: functional
Staphylococcus aureus [29] = experiment: Antibacterial activity against methicillin resistant Staphylococcus aureus 4591/A assessed as reduction in microbial growth incubated for 24 hrs by microdilution assay; assay type: functional
Cell membrane [30] = experiment: Induction of cell envelope damage in Staphylococcus aureus assessed as membranous nanotubes extrude from dying/dead cells at 8 mg/L measured after 8 hrs by scanning electron microscope analysis
Staphylococcus aureus [31] = experiment: Antibacterial activity against wild type Staphylococcus aureus 4788/B assessed as reduction in microbial growth incubated for 24 hrs by microdilution assay; assay type: functional
Staphylococcus aureus [32] = experiment: Antibacterial activity against wild type Staphylococcus aureus 4740/B assessed as reduction in microbial growth incubated for 24 hrs by microdilution assay; assay type: functional
[33] = Toxicity in rabbit assessed as maximum tolerated dose administered subcutaneously; design: species or system Oryctolagus cuniculus; details: in vivo, route sc
Staphylococcus aureus [34] = experiment: Antibacterial activity against wild type Staphylococcus aureus 78/CF assessed as reduction in microbial growth incubated for 24 hrs by microdilution assay; assay type: functional
Cell membrane [35] = experiment: Induction of cell envelope damage in Staphylococcus aureus assessed as loss of cytoplasmic content at 8 mg/L measured after 8 hrs by scanning electron microscope analysis; assay type: subcellular
[36] = Toxicity in human epidermis model assessed as skin irritation incubated for 42 hrs; assay type: tissue-based
Staphylococcus aureus [37] = experiment: microbe, parasite or virus in culture; details: 4862/C, 24 h
Description: Antibacterial activity against wild type Staphylococcus aureus 4862/C assessed as reduction in microbial growth incubated for 24 hrs by microdilution assay

Enterococcus faecalis = experiment: Antibacterial activity against Enterococcus faecalis ATCC 29212 = CCM 4224 assessed as inhibition of bacterial growth incubated for 24 hrs by microdilution assay; assay type: functional
[38] = Toxicity in rabbit assessed as skin irritation at 100 to 200 mg/L after administration bandaged for 4 hrs and measured after 1 to 72 hrs of contact time; design: species or system Oryctolagus cuniculus; details: in vivo, topical_or_ocular, dose lower 100 mg/L, time lower 1 hrs, dose upper 200 mg/L, time upper 76 hrs
Staphylococcus aureus [39] = experiment: Bactericidal activity against Staphylococcus aureus CCM 4223 assessed as reduction in viable cell count measured after 24 hrs by Time kill assay; assay type: functional, organism-based; details: DDE = dose-dependent effect
Staphylococcus aureus [40] = experiment: Antibacterial activity against wild type Staphylococcus aureus 5079/C assessed as reduction in microbial growth incubated for 24 hrs by microdilution assay; assay type: functional
Staphylococcus aureus [41] = experiment: Antibacterial activity against wild type Staphylococcus aureus 4968/C assessed as reduction in microbial growth incubated for 24 hrs by microdilution assay; assay type: functional
[42] = Cytotoxicity against human HepG2 cells assessed as reduction in cell viability; assay type: toxicity, cell-based
Staphylococcus aureus [43] = experiment: Antibacterial activity against Staphylococcus aureus ATCC 29213 = CCM 4223 assessed as inhibition of bacterial growth incubated for 24 hrs in presence of BSA by microdilution assay; assay type: functional
Staphylococcus aureus [44] = experiment: Antibacterial activity against wild type Staphylococcus aureus 4561/A assessed as reduction in microbial growth incubated for 24 hrs by microdilution assay; assay type: functional
Staphylococcus aureus [45] = experiment: Antibacterial activity against wild type Staphylococcus aureus 4738/B assessed as reduction in microbial growth incubated for 24 hrs by microdilution assay; assay type: functional
Escherichia coli [46] = experiment: Antibacterial activity against multidrug-resistant Escherichia coli CE5556 expressing CTX-M-15 assessed as reduction in microbial growth incubated for 24 hrs by microdilution assay; assay type: functional
Escherichia coli [47] = experiment: Bactericidal activity against Escherichia coli CCM 3954 assessed as reduction in viable cell count measured after 24 hrs by Time kill assay; assay type: functional, organism-based; details: dose 2-8 mg/L, DDE = dose-dependent effect
Enterococcus faecium = experiment: Antibacterial activity against vancomycin resistant Enterococcus faecium 419/ANA assessed as reduction in microbial growth incubated for 24 hrs by microdilution assay; assay type: functional
Cell membrane [48] = experiment: Induction of cell envelope damage in Staphylococcus aureus assessed as loss of cell integrity at 8 mg/L measured after 8 hrs by scanning electron microscope analysis; assay type: subcellular
Staphylococcus aureus [49] = experiment: Antibacterial activity against Staphylococcus aureus ATCC 29213 = CCM 4223 assessed as inhibition of bacterial growth incubated for 24 hrs by microdilution assay; assay type: functional

Structure (SMILES): CCCCCCCCOP(=O)(CCN(CCCN)CCCN)OCCCCOP(=O)(CCN(CCCN)CCCN)OCCCCCCCC.Cl.Cl.Cl.Cl.Cl.Cl (stereo unspecified)
- MTD [1]: > 200 mg/kg
- MIC (Staphylococcus aureus [2]): 2 µg/mL
- CHI [3]: 35.3
- viability at 42 h [4]: > 60%
- MIC (Staphylococcus aureus [5]): 1 µg/mL
- Activity [6]: Non-Toxic
- MIC (Staphylococcus aureus [7]): 1 µg/mL
- MIC (Staphylococcus aureus [8]): 1 µg/mL
- Activity [9]: Non-Toxic
- MIC (Staphylococcus aureus [10]): 2 µg/mL
- MIC (Pseudomonas aeruginosa [11]): 4 µg/mL
- MIC (Staphylococcus aureus [12]): 2 µg/mL
- MIC [13]: 1 µg/mL
- MIC (Staphylococcus aureus [14]): 1 µg/mL
- MIC (Staphylococcus aureus [15]): 2 µg/mL
- MIC (Staphylococcus aureus [16]): 2 µg/mL
- MIC (Staphylococcus aureus [17]): 1 µg/mL
- MIC (Escherichia coli [18]): 2 µg/mL
- MIC (Staphylococcus aureus [19]): 1 µg/mL
- MIC (Staphylococcus aureus [20]): 1 µg/mL
- Activity (Cell membrane [21]): Active
- MIC (Staphylococcus aureus [22]): 2 µg/mL
- MIC (Staphylococcus aureus [23]): 1 µg/mL
- MIC (Escherichia coli [24]): 1 µg/mL
- MIC (Pseudomonas aeruginosa [25]): 4 µg/mL
- MIC (Staphylococcus aureus [26]): 1 µg/mL
- HC50 at 3 h [27]: 263 µg/mL
- MIC (Staphylococcus aureus [28]): 1 µg/mL
- MIC (Staphylococcus aureus [29]): 2 µg/mL
- Activity (Cell membrane [30]): Active
- MIC (Staphylococcus aureus [31]): 1 µg/mL
- MIC (Staphylococcus aureus [32]): 1 µg/mL
- MTD [33]: > 15 mg/kg
- MIC (Staphylococcus aureus [34]): 2 µg/mL
- Activity (Cell membrane [35]): Active
- Activity [36]: Non-Toxic
- MIC (Staphylococcus aureus [37]): 1 µg/mL
- MIC (Enterococcus faecalis): 4 µg/mL
- Activity [38]: Non-Toxic
- Activity (Staphylococcus aureus [39]): Dde
- MIC (Staphylococcus aureus [40]): 1 µg/mL
- MIC (Staphylococcus aureus [41]): 2 µg/mL
- CC50 [42]: 95.9 µM
- MIC (Staphylococcus aureus [43]): 2 µg/mL
- MIC (Staphylococcus aureus [44]): 2 µg/mL
- MIC (Staphylococcus aureus [45]): 1 µg/mL
- MIC (Escherichia coli [46]): 2 µg/mL
- Activity (Escherichia coli [47]): Dde
- MIC (Enterococcus faecium): 64 µg/mL
- Activity (Cell membrane [48]): Active
- MIC (Staphylococcus aureus [49]): 2 µg/mL
